Publication PMC9578143, “Small-Molecule Ebselen Binds to YTHDF Proteins Interfering with the Recognition of N^6-Methyladenosine-Modified RNAs” (ACS Pharmacology & Translational Science, 2022)

Key:
YTHDF1 domain = molecular target: T1, YTHDF1 domain (Homo sapiens, UniProt Q9BYJ9); assay: Dynamic mass redistribution (DMR), label-free; conditions: immobilized YTHDF1 domain, binding at equilibrium
T1 construct: The human YTHDF1 YTH domain (amino acids 365–554, PDB: 4RCJ); host or cells: E. coli BL21(DE3)
T1 sequence (Q9BYJ9 365-554): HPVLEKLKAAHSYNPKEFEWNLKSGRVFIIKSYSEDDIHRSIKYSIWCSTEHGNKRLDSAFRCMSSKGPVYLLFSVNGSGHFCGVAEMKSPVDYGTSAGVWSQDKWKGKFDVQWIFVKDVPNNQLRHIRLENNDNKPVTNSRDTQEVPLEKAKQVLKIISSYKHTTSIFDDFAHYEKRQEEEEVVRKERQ
Experimental: The protein was immobilized in a final volume of 15 μL/well of a 50 μg/mL solution in 20 mM sodium acetate buffer, pH 6, onto the surface of label-free microplates by amine-coupling chemistry. Different concentrations of ebselen (300 nM to 50 μM) were added to the plate and the mass of the molecular complex was measured every minute for 1 h. […]
probe with the YTH domain of YTHDF1 calculated with the DMR. rYTH was immobilized to the wells with amino-coupled chemistry and different concentrations of RNA were added to the plate.
Measurements were performed before adding the RNA, in order to define a baseline, and after the addition. Final response (pm) was obtained by subtracting to the last measurement the baseline.
Signal for each well was obtained by subtracting the signal of a reference area with the protein coated to an uncoated one. Data were fitted according to a four-parameter nonlinear regression […]
(1 picture or pasted object on this page, not shown here)

PC-3 cells = assay: Cell viability assay (OZBlue); format: cell-based; conditions: Homo sapiens
Experimental: PC-3 cells were seeded and treated in 96 plates for 24, 48, and 72 h. Cell viability was assessed by adding to the cells 10% of the culture medium volume of the OZBlue reagent (OZ Biosciences). Cells were incubated at 37 °C for 1 h. Fluorescence was then determined (excitation 560 nm and emission 590 nm) by a Tecan microplate reader. Cell survival was calculated with respect to control (DMSO), and IC50 values were determined by fitting with GraphPad Prism software.

[1] = molecular target: T2, YTHDF2-bound mRNAs (PEG10, NOTCH2, CREBBP) in PC-3 cells (Homo sapiens, UniProt Q9Y5A9); assay: Ribonucleoprotein immunoprecipitation (RIP) followed by qRT-PCR; format: cell-based; conditions: 25 μM, 24 h, versus DMSO
T2 construct: endogenous in cells; host or cells: PC-3
T2 sequence (Q9Y5A9 1-579): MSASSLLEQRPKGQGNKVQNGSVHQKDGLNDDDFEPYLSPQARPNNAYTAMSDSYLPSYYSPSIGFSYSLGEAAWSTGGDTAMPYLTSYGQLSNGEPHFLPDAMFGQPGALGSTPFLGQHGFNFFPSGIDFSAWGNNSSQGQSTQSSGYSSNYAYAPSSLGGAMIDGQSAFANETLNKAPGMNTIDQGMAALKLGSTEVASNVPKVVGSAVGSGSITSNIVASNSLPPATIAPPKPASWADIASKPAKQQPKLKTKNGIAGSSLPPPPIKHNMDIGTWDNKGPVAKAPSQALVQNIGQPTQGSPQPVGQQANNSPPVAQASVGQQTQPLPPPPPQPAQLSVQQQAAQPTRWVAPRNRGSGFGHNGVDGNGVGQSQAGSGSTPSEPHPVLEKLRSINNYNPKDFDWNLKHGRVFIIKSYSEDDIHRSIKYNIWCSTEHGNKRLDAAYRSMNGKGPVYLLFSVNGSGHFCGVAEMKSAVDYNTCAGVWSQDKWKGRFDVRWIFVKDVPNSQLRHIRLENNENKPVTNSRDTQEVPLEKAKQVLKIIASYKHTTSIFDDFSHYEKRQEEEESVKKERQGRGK
Experimental: Five million cells were used for each RIP experiment followed by qRT-PCR,[65] without cross-linking steps and using 1–15 μg of the YTHDF2 antibody (Proteintech, 24744-1-AP) or the same amount of the rabbit normal IgG isotype (negative control, Cell Signaling, 2729S). Cells were harvested after 24 h of treatment with 25 μM ebselen and DMSO as the control, lysed with 20 mM Tris–HCl at pH 7.5, 100 mM KCl, 5 mM MgCl2, and 0.5% NP-40 for 10 min on ice, and centrifuged at 15,000g for 10 min at 4 °C. Lysates were then incubated with Dynabead A/G (Thermo Fisher, 10001D/10003D) for pre-clearing for 1 h at 4 °C and then with Dynabeads A/G (80/20 ratio) at RT for 1 h with YTHDF2 or rabbit isotype IgG for Ab coating. After the pre-clearing steps and the coating, lysates were split between YTHDF2 and IgG-coated beads, while 1–5% of the lysate was stored as the input and incubated O/N at 4 °C. Finally, samples were washed with NT2 buffer for five times, 5 min each at 4 °C. […] For each condition, the ΔCt value of IgG and YTHDF2 was evaluated in triplicate. Normalization of the values was then carried out following the percent input method, in which values from IgG and YTHDF2 IP were calculated as % input of the adjusted input values. […] YTHDF2 and IgG fractions were calculated as % input by subtracting to the adjusted input values their ΔCt values. […]

**Q.** For `O=c1c2ccccc2[se]n1-c1ccccc1` [Compound 1, 2-phenyl-1,2-benzisoselenazol-3(2H)-one], which EC50 (YTHDF1 domain) is on record?
**A.** 3.22 µM

**Q.** And the IC50 (PC-3 cells; 24 h)?
**A.** 58.8 µM

**Q.** And the IC50 (PC-3 cells; 48 h)?
**A.** 49.6 µM

**Q.** What about the IC50 (PC-3 cells; 72 h) of the same compound?
**A.** 26.8 µM

**Q.** What about the “YTHDF2-bound target mRNA levels (RIP, in words)” value [1] of the same compound?
**A.** decrease of the mRNA levels compared to control samples
